Test results taken from the supplement of paper PMC10307832.

Legend:
Experiment in all cases: relative viability (nuclei count vs DMSO), 5 days (fraction); higher = more cells survive
HCC-78 = test system: HCC-78
How it was run: (§1)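 Lung cancer cell lines in 1536-well plates got either a single drug or a fixed anchor-drug dose together with five library-drug doses (not always all listed) in √10 steps, by pin tool, on the day after seeding. Nuclei were counted after 5 days, and relative viability is the treated-to-vehicle ratio of nuclei counts. Values are medians of duplicate plates.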

NCI-H23 = test system: NCI-H23
How it was run: as §1

EMC-BAC-2 = test system: EMC-BAC-2
How it was run: as §1

NCI-H1944 = test system: NCI-H1944
How it was run: as §1

HCC-15 = test system: HCC-15
How it was run: as §1

COR-L23 = test system: COR-L23
How it was run: as §1

LC-2-ad = test system: LC-2-ad
How it was run: as §1

A-427 = test system: A-427
How it was run: as §1

NCI-H1993 = test system: NCI-H1993
How it was run: as §1

NCI-H1793 = test system: NCI-H1793
How it was run: as §1

NCI-H2009 = test system: NCI-H2009
How it was run: as §1

HARA = test system: HARA
How it was run: as §1

NCI-H2228 = test system: NCI-H2228
How it was run: as §1

NCI-H2023 = test system: NCI-H2023
How it was run: as §1

NCI-H1650 = test system: NCI-H1650
How it was run: as §1

ChaGo-K-1 = test system: ChaGo-K-1
How it was run: as §1

NCI-H838 = test system: NCI-H838
How it was run: as §1

SK-LU-1 = test system: SK-LU-1
How it was run: as §1

NCI-H2405 = test system: NCI-H2405
How it was run: as §1

UMC-11 = test system: UMC-11
How it was run: as §1

LK-2 = test system: LK-2
How it was run: as §1

ABC-1 = test system: ABC-1
How it was run: as §1

NCI-H1734 = test system: NCI-H1734
How it was run: as §1

HCC-366 = test system: HCC-366
How it was run: as §1

## COc1cc(N2CCC(C(N)=O)CC2)ccc1Nc1nc(N)c(Cl)c(Nc2ccccc2S(=O)(=O)C(C)C)n1 [HG-5-88-01] + COc1cc2c(Oc3ccc(NC(=O)C4(C(=O)Nc5ccc(F)cc5)CC4)cc3F)ccnc2cc1OCCCN1CCOCC1 [Foretinib] (partner 0.25 µM)
HCC-78; first compound 0.04 µM
  relative viability: 0.589
HCC-78; first compound 0.1265 µM
  relative viability: 0.533
HCC-78; first compound 0.4 µM
  relative viability: 0.583
HCC-78; first compound 1.265 µM
  relative viability: 0.377
HCC-78; first compound 4 µM
  relative viability: 0.464
NCI-H23; first compound 0.04 µM
  relative viability: 1.08
NCI-H23; first compound 0.1265 µM
  relative viability: 1.06
NCI-H23; first compound 0.4 µM
  relative viability: 0.972
NCI-H23; first compound 1.265 µM
  relative viability: 0.729
NCI-H23; first compound 4 µM
  relative viability: 0.515
EMC-BAC-2; first compound 0.04 µM
  relative viability: 1.06
EMC-BAC-2; first compound 0.1265 µM
  relative viability: 1.09
EMC-BAC-2; first compound 0.4 µM
  relative viability: 0.973
EMC-BAC-2; first compound 1.265 µM
  relative viability: 0.787
EMC-BAC-2; first compound 4 µM
  relative viability: 0.795
NCI-H1944; first compound 0.04 µM
  relative viability: 0.874
NCI-H1944; first compound 0.1265 µM
  relative viability: 0.884
NCI-H1944; first compound 0.4 µM
  relative viability: 0.917
NCI-H1944; first compound 1.265 µM
  relative viability: 0.883
NCI-H1944; first compound 4 µM
  relative viability: 0.886
HCC-15; first compound 0.04 µM
  relative viability: 1.02
HCC-15; first compound 0.1265 µM
  relative viability: 1.01
HCC-15; first compound 0.4 µM
  relative viability: 0.946
HCC-15; first compound 1.265 µM
  relative viability: 0.867
HCC-15; first compound 4 µM
  relative viability: 0.703
COR-L23; first compound 0.04 µM
  relative viability: 0.903
COR-L23; first compound 0.1265 µM
  relative viability: 0.995
COR-L23; first compound 0.4 µM
  relative viability: 0.99
COR-L23; first compound 1.265 µM
  relative viability: 0.768
COR-L23; first compound 4 µM
  relative viability: 0.805
LC-2-ad; first compound 0.04 µM
  relative viability: 0.987
LC-2-ad; first compound 0.1265 µM
  relative viability: 0.906
LC-2-ad; first compound 0.4 µM
  relative viability: 0.956
LC-2-ad; first compound 1.265 µM
  relative viability: 0.54
LC-2-ad; first compound 4 µM
  relative viability: 0.739
A-427; first compound 0.04 µM
  relative viability: 1.13
A-427; first compound 0.1265 µM
  relative viability: 1.13
A-427; first compound 0.4 µM
  relative viability: 0.953
A-427; first compound 1.265 µM
  relative viability: 1.08
A-427; first compound 4 µM
  relative viability: 1.08
NCI-H1993; first compound 0.04 µM
  relative viability: 0.739
NCI-H1993; first compound 0.1265 µM
  relative viability: 0.727
NCI-H1993; first compound 0.4 µM
  relative viability: 0.725
NCI-H1993; first compound 1.265 µM
  relative viability: 0.586
NCI-H1993; first compound 4 µM
  relative viability: 0.623
NCI-H1793; first compound 0.1265 µM
  relative viability: 0.787
NCI-H1793; first compound 0.4 µM
  relative viability: 0.615
NCI-H1793; first compound 4 µM
  relative viability: 0.423
NCI-H2009; first compound 0.04 µM
  relative viability: 1.18
NCI-H2009; first compound 0.1265 µM
  relative viability: 1.25
NCI-H2009; first compound 0.4 µM
  relative viability: 1.14
NCI-H2009; first compound 1.265 µM
  relative viability: 1.14
NCI-H2009; first compound 4 µM
  relative viability: 1.24
HARA; first compound 0.04 µM
  relative viability: 0.917
HARA; first compound 0.1265 µM
  relative viability: 0.878
HARA; first compound 0.4 µM
  relative viability: 0.875
HARA; first compound 1.265 µM
  relative viability: 0.733
HARA; first compound 4 µM
  relative viability: 0.694
NCI-H2228; first compound 0.04 µM
  relative viability: 0.593
NCI-H2228; first compound 0.1265 µM
  relative viability: 0.327
NCI-H2228; first compound 0.4 µM
  relative viability: 0.353
NCI-H2228; first compound 1.265 µM
  relative viability: 0.219
NCI-H2228; first compound 4 µM
  relative viability: 0.27
NCI-H2023; first compound 0.04 µM
  relative viability: 1
NCI-H2023; first compound 0.1265 µM
  relative viability: 0.899
NCI-H2023; first compound 0.4 µM
  relative viability: 0.628
NCI-H2023; first compound 1.265 µM
  relative viability: 0.399
NCI-H2023; first compound 4 µM
  relative viability: 0.507
NCI-H1650; first compound 0.04 µM
  relative viability: 1.11
NCI-H1650; first compound 0.1265 µM
  relative viability: 1.2
NCI-H1650; first compound 0.4 µM
  relative viability: 1.26
NCI-H1650; first compound 1.265 µM
  relative viability: 0.751
NCI-H1650; first compound 4 µM
  relative viability: 0.836
ChaGo-K-1; first compound 0.04 µM
  relative viability: 0.761
ChaGo-K-1; first compound 0.1265 µM
  relative viability: 1.03
ChaGo-K-1; first compound 0.4 µM
  relative viability: 0.804
ChaGo-K-1; first compound 1.265 µM
  relative viability: 0.942
ChaGo-K-1; first compound 4 µM
  relative viability: 0.909
NCI-H838; first compound 0.04 µM
  relative viability: 0.939
NCI-H838; first compound 0.1265 µM
  relative viability: 1.02
NCI-H838; first compound 0.4 µM
  relative viability: 0.797
NCI-H838; first compound 1.265 µM
  relative viability: 0.814
NCI-H838; first compound 4 µM
  relative viability: 0.893
SK-LU-1; first compound 0.04 µM
  relative viability: 0.839
SK-LU-1; first compound 0.1265 µM
  relative viability: 0.834
SK-LU-1; first compound 0.4 µM
  relative viability: 0.751
SK-LU-1; first compound 1.265 µM
  relative viability: 0.738
SK-LU-1; first compound 4 µM
  relative viability: 0.618
NCI-H2405; first compound 0.04 µM
  relative viability: 1.08
NCI-H2405; first compound 0.1265 µM
  relative viability: 1.03
NCI-H2405; first compound 0.4 µM
  relative viability: 0.974
NCI-H2405; first compound 1.265 µM
  relative viability: 0.571
NCI-H2405; first compound 4 µM
  relative viability: 0.895
UMC-11; first compound 0.04 µM
  relative viability: 1.09
UMC-11; first compound 0.1265 µM
  relative viability: 1.07
UMC-11; first compound 1.265 µM
  relative viability: 0.923
UMC-11; first compound 4 µM
  relative viability: 0.371
LK-2; first compound 0.04 µM
  relative viability: 1.13
LK-2; first compound 0.1265 µM
  relative viability: 1.39
LK-2; first compound 0.4 µM
  relative viability: 0.784
LK-2; first compound 1.265 µM
  relative viability: 0.99
LK-2; first compound 4 µM
  relative viability: 0.808
ABC-1; first compound 0.04 µM
  relative viability: 0.931
ABC-1; first compound 0.1265 µM
  relative viability: 1.16
ABC-1; first compound 0.4 µM
  relative viability: 0.73
ABC-1; first compound 1.265 µM
  relative viability: 0.719
ABC-1; first compound 4 µM
  relative viability: 0.616
NCI-H1734; first compound 0.04 µM
  relative viability: 1.05
NCI-H1734; first compound 0.1265 µM
  relative viability: 0.8
NCI-H1734; first compound 0.4 µM
  relative viability: 0.793
NCI-H1734; first compound 1.265 µM
  relative viability: 0.576
NCI-H1734; first compound 4 µM
  relative viability: 0.644
HCC-366; first compound 0.04 µM
  relative viability: 0.955
HCC-366; first compound 0.1265 µM
  relative viability: 0.915
HCC-366; first compound 0.4 µM
  relative viability: 0.909
HCC-366; first compound 1.265 µM
  relative viability: 0.856
HCC-366; first compound 4 µM
  relative viability: 0.45
